Laboratory results reported in patent US10294248B2, “Beta-lactamase inhibitors” (VenatoRx Pharmaceuticals, Inc., priority 2013, dated 2019).

Columns and labels:
[1] = molecular target: T1, VIM-2 metallo-β-lactamase (Class B) (Pseudomonas aeruginosa, UniProt Q9K2N0); test: β-Lactamase inhibition, VIM-2; type: biochemical; conditions: nitrocefin 100 μM, 486 nm; 15 min preincubation at 37° C., PBS pH 7.4
T1 construct: made in house; host or cells: E. coli BL21(DE3)
Method in brief: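 Purified VIM-2 (Q sepharose anion exchange, Hepes pH 7.5, >90% pure) was preincubated with inhibitor at 37 °C for 15 min, then nitrocefin added at 100 μM final. Absorbance at 486 nm was followed for 10 min; IC50 was taken from maximum hydrolysis rates relative to inhibitor-free controls.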

[2] = tested on: S. aureus MSSA-7 producing penicillinase PC-1; test: Broth microdilution MIC, S. aureus MSSA-7 PC-1; type: cell-based; conditions: fixed 4 μg/mL piperacillin; CAMHB, 16-20 hours at 37° C.
Method in brief: (§1)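 Potentiation MIC by CLSI broth microdilution in cation-adjusted Mueller Hinton broth. Test compound was 2-fold serially diluted from 32 to 0.25 μg/ml with a β-lactam held at a static 4 μg/ml. After 16-20 h at 37° C, MIC was read visually.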

[3] = molecular target: T2, p99 AmpC β-lactamase (Class C) (Enterobacter cloacae, UniProt P05364); test: β-Lactamase inhibition, p99 AmpC; type: biochemical
T2 construct: made in house; host or cells: E. coli BL21(DE3)

[4] = tested on: E. coli ESBL4 expressing CTX-M-15; test: Broth microdilution MIC, E. coli ESBL4 CTX-M-15; type: cell-based; conditions: fixed 4 μg/mL ceftazidime; CAMHB, 16-20 hours at 37° C.
Method in brief: as §1

[5] = tested on: P. aeruginosa Ps296 expressing VIM-2; test: Broth microdilution MIC, P. aeruginosa Ps296 VIM-2; type: cell-based; conditions: fixed 4 μg/mL meropenem; CAMHB, 16-20 hours at 37° C.
Method in brief: as §1

[6] = molecular target: T3, SHV-5 β-lactamase (Class A ESBL) (Klebsiella pneumoniae, UniProt P0A3M1); test: β-Lactamase inhibition, SHV-5; type: biochemical
T3 construct: made in house; host or cells: E. coli BL21(DE3)
Method in brief: (§2)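 Native untagged β-lactamases were expressed in E. coli BL21(DE3), then purified by cation exchange and gel filtration. Enzyme was preincubated with inhibitor for 15 min at 37 °C before substrate was added. Imipenem (A300) served KPC-2 and cefotaxime (A260) served SHV-5. IC50 was taken from initial hydrolysis rates relative to no-inhibitor controls.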

[7] = molecular target: T4, OXA-1 β-lactamase (Class D oxacillinase) (Escherichia coli, UniProt P13661); test: β-Lactamase inhibition, OXA-1; type: biochemical; conditions: nitrocefin 100 μM, 486 nm; 15 min preincubation at 37° C., PBS pH 7.4
T4 construct: made in house; host or cells: E. coli BL21(DE3)
Method in brief: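 Untagged enzyme from E. coli BL21(DE3), purified by Capto S then Superdex 75; 15 min 37 °C preincubation with inhibitor; KPC-2 read with imipenem at 300 nm, SHV-5 with cefotaxime at 260 nm, OXA-1 with nitrocefin 100 μM final at 486 nm; 10 min kinetic read; IC50 vs uninhibited wells.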

[8] = molecular target: T5, KPC-2 β-lactamase (Class A carbapenemase) (Klebsiella pneumoniae, UniProt Q9F663); test: β-Lactamase inhibition, KPC-2; type: biochemical; conditions: imipenem substrate, 300 nm; 15 min preincubation at 37° C., PBS pH 7.4
T5 construct: made in house; host or cells: E. coli BL21(DE3)
Method in brief: as §2

[9] = tested on: E. cloacae 144200 expressing Class C P99 AmpC; test: Broth microdilution MIC, E. cloacae 144200 p99 AmpC; type: cell-based; conditions: fixed 4 μg/mL ceftazidime; CAMHB, 16-20 hours at 37° C.
Method in brief: as §1

[10] = tested on: K. pneumoniae 156319 expressing KPC-3; test: Broth microdilution MIC, K. pneumoniae 156319 KPC-3; type: cell-based; conditions: fixed 4 μg/mL meropenem; CAMHB, 16-20 hours at 37° C.
Method in brief: as §1

[11] = tested on: K. pneumoniae A-1797 expressing KPC-2 and VIM-4; test: Broth microdilution MIC, K. pneumoniae A-1797 KPC-2/VIM-4; type: cell-based; conditions: fixed 4 μg/mL meropenem; CAMHB, 16-20 hours at 37° C.
Method in brief: as §1

T3 sequence (P0A3M1 22-286): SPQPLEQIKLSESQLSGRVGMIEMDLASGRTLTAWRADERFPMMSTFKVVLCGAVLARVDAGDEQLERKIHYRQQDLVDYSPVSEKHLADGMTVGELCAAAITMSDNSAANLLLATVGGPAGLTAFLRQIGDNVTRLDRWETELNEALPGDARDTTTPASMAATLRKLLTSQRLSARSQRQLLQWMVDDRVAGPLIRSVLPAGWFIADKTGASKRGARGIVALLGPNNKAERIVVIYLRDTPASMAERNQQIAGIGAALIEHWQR
T4 sequence (P13661 26-276): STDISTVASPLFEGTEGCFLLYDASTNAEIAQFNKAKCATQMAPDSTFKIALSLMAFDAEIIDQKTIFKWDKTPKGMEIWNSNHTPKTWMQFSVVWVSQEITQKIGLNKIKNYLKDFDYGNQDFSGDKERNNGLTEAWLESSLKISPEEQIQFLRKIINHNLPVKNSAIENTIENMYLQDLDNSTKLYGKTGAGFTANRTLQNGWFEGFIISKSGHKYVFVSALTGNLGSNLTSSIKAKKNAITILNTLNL
T5 sequence (Q9F663 25-293, looked up): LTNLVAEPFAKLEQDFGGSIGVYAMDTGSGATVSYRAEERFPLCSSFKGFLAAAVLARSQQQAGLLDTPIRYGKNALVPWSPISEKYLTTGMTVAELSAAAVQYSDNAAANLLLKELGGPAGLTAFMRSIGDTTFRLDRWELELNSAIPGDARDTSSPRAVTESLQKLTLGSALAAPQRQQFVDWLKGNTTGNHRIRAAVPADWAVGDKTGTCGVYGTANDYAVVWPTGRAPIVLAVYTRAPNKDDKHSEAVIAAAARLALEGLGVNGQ
T2 sequence (P05364 21-381): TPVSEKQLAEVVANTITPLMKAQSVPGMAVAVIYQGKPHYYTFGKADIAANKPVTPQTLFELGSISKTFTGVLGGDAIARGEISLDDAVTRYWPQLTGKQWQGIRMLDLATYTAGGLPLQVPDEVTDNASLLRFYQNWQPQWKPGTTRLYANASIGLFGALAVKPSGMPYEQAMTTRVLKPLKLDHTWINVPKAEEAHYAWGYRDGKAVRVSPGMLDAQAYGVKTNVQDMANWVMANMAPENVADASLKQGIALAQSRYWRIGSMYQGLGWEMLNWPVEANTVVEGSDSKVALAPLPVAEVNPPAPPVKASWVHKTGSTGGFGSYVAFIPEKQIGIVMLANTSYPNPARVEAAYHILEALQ

| SMILES | IC50 [1] | MIC of example compound in presence of fixed β-lactam: Fixed Pip, S. aureus MSSA-7 PC-1 [2] | IC50 [3] | MIC of example compound in presence of fixed β-lactam: Fixed CAZ, E. coli ESBL4 CTX-M-15 [4] | MIC of example compound in presence of fixed β-lactam: Fixed Mero, P. aerug. Ps296 VIM-2 [5] | IC50 [6] | IC50 [7] | IC50 [8] | MIC of example compound in presence of fixed β-lactam: Fixed CAZ, E. cl. 144200 p99 AmpC [9] | MIC of example compound in presence of fixed β-lactam: Fixed Mero, K. P. 156319 KPC-3 [10] | MIC of example compound in presence of fixed β-lactam: Fixed Mero, K. P. A-1797 KPC-2 VIM-4 [11] |
| --- | --- | --- | --- | --- | --- | --- | --- | --- | --- | --- | --- |
| NCCC(=O)NC1CCN(CC(=O)N[C@H]2Cc3cccc(C(=O)O)c3OB2O)CC1 [Example 27, 3-{2-[4-(3-Amino-propionylamino)-piperidin-1-yl]-acetylamino}-2-hydroxy-3,4-dihydro-2H-benzo[e][1,2]oxaborinine-8-carboxylic acid] | 10 to 100 µM | A (an MIC of the fixed β-lactam antibiotic in the presence of >32 μg/mL of a β-lactamase inhibitor) | < 100 nM | C (the MIC in the presence of <4 μg/mL of a β-lactamase inhibitor) | B (the MIC in the presence of between 8 and 32 μg/mL of a β-lactamase inhibitor) | 100 to 1000 nM | 100 to 1000 nM | 100 to 1000 nM | B (the MIC in the presence of between 8 and 32 μg/mL of a β-lactamase inhibitor) | B (the MIC in the presence of between 8 and 32 μg/mL of a β-lactamase inhibitor) | B (the MIC in the presence of between 8 and 32 μg/mL of a β-lactamase inhibitor) |
| O=C(CN1CCCNCC1)N[C@H]1Cc2cccc(C(=O)O)c2OB1O [Example 13, 3-(2-[1,4]Diazepan-1-yl-acetylamino)-2-hydroxy-3,4-dihydro-2H-benzo[e][1,2]oxaborinine-8-carboxylic acid] | 10 to 100 µM | C (the MIC in the presence of <4 μg/mL of a β-lactamase inhibitor) | < 100 nM | C (the MIC in the presence of <4 μg/mL of a β-lactamase inhibitor) | B (the MIC in the presence of between 8 and 32 μg/mL of a β-lactamase inhibitor) | 100 to 1000 nM | 100 to 1000 nM | 1000 to 10000 nM | C (the MIC in the presence of <4 μg/mL of a β-lactamase inhibitor) | C (the MIC in the presence of <4 μg/mL of a β-lactamase inhibitor) | B (the MIC in the presence of between 8 and 32 μg/mL of a β-lactamase inhibitor) |
| NC1CN(CC(=O)N[C@H]2Cc3cccc(C(=O)O)c3OB2O)CCC1O (some centres unmarked) [Example 26, 3-[2-(3-Amino-4-hydroxy-piperidin-1-yl)-acetylamino]-2-hydroxy-3,4-dihydro-2H-benzo[e][1,2]oxaborinine-8-carboxylic acid] | 10 to 100 µM | A (an MIC of the fixed β-lactam antibiotic in the presence of >32 μg/mL of a β-lactamase inhibitor) | < 100 nM | C (the MIC in the presence of <4 μg/mL of a β-lactamase inhibitor) | C (the MIC in the presence of <4 μg/mL of a β-lactamase inhibitor) | 100 to 1000 nM | 100 to 1000 nM | 100 to 1000 nM | C (the MIC in the presence of <4 μg/mL of a β-lactamase inhibitor) | C (the MIC in the presence of <4 μg/mL of a β-lactamase inhibitor) | C (the MIC in the presence of <4 μg/mL of a β-lactamase inhibitor) |
| NCC1CN(CC(=O)N[C@H]2Cc3cccc(C(=O)O)c3OB2O)CCC1N (some centres unmarked) [Example 29, 3-[2-(4-Amino-3-aminomethyl-piperidin-1-yl)-acetylamino]-2-hydroxy-3,4-dihydro-2H-benzo[e][1,2]oxaborinine-8-carboxylic acid] | 10 to 100 µM | C (the MIC in the presence of <4 μg/mL of a β-lactamase inhibitor) | 100 to 1000 nM | C (the MIC in the presence of <4 μg/mL of a β-lactamase inhibitor) | C (the MIC in the presence of <4 μg/mL of a β-lactamase inhibitor) | 1000 to 10000 nM | 100 to 1000 nM | 100 to 1000 nM | C (the MIC in the presence of <4 μg/mL of a β-lactamase inhibitor) | C (the MIC in the presence of <4 μg/mL of a β-lactamase inhibitor) | B (the MIC in the presence of between 8 and 32 μg/mL of a β-lactamase inhibitor) |
